Assay results taken from patent US9815796B2 (Merck Sharp & Dohme Corp., priority 2013, dated 2017).
Where two headings read alike, the source gives them in different places.

Assays:
Rhesus PDE2A3 = Rhesus PDE2A3 (Macaca mulatta, UniProt B3VTJ2); experiment: PDE2 fluorescence polarization (IMAP FP) inhibition assay, rhesus enzyme; type: biochemical, rhesus macaque
Outline: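 Rhesus PDE2A3 came from lysate of transiently transfected AD293 cells, diluted to give 20% substrate conversion. Substrate was 50 nM FAM-cAMP with 1 uM cGMP activator in Tris pH 7.2/MgCl2 buffer, run 60 min at room temperature over 10-point 3-fold dilutions in 1% DMSO. Read-out was IMAP fluorescence polarization (mP) after ≥1 h binding.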

human PDE2A1 = human PDE2A1 (Homo sapiens (Human), UniProt O00408); experiment: IMAP FP PDE selectivity panel, human PDE2A1; type: biochemical
Outline: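 GST-tagged human PDE2A1 expressed in insect cells, run at room temperature for 60 min with 50 nM FAM-cAMP containing 1000 nM cGMP, pH 7.2 Tris/MgCl2 buffer. IMAP fluorescence polarization read after binding step.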

[1] = Rhesus PDE2, Lab A, read-out: Rhesus PDE2 Ki (nM) - Lab A
[2] = Rhesus PDE2, Lab B, read-out: Rhesus PDE2 Ki (nM) - Lab B
[3] = Human PDE2, Lab A, read-out: Human PDE2 Ki (nM) - Lab A
[4] = Human PDE2, Lab B, read-out: Human PDE2 Ki (nM) - Lab B

Chain of human PDE2A1 (O00408 other isoform, or with tags, fused parts or gaps): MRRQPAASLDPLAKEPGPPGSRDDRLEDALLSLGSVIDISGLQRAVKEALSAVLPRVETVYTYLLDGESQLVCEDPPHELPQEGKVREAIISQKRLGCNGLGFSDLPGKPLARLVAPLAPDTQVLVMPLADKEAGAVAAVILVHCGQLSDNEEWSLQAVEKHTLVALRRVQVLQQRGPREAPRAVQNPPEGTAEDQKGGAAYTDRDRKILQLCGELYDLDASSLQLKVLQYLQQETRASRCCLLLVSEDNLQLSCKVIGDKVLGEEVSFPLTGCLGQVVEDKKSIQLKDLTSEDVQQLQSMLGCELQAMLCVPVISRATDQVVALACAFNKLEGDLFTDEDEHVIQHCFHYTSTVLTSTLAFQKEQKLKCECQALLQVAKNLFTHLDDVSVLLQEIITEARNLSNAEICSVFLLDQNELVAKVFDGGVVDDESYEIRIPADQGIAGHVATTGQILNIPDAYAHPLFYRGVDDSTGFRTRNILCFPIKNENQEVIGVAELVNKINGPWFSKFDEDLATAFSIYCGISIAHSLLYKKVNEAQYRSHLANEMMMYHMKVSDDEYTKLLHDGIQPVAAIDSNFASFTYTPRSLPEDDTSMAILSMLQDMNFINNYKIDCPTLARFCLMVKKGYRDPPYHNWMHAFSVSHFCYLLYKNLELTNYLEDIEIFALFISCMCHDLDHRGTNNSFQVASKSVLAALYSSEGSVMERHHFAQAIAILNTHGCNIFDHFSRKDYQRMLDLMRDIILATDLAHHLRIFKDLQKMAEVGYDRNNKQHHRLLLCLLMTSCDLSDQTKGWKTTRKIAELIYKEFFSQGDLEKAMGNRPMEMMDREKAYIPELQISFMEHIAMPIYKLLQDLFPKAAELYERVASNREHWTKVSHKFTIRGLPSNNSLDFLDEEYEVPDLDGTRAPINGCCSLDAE
Chain of Rhesus PDE2A3 (B3VTJ2 1-941): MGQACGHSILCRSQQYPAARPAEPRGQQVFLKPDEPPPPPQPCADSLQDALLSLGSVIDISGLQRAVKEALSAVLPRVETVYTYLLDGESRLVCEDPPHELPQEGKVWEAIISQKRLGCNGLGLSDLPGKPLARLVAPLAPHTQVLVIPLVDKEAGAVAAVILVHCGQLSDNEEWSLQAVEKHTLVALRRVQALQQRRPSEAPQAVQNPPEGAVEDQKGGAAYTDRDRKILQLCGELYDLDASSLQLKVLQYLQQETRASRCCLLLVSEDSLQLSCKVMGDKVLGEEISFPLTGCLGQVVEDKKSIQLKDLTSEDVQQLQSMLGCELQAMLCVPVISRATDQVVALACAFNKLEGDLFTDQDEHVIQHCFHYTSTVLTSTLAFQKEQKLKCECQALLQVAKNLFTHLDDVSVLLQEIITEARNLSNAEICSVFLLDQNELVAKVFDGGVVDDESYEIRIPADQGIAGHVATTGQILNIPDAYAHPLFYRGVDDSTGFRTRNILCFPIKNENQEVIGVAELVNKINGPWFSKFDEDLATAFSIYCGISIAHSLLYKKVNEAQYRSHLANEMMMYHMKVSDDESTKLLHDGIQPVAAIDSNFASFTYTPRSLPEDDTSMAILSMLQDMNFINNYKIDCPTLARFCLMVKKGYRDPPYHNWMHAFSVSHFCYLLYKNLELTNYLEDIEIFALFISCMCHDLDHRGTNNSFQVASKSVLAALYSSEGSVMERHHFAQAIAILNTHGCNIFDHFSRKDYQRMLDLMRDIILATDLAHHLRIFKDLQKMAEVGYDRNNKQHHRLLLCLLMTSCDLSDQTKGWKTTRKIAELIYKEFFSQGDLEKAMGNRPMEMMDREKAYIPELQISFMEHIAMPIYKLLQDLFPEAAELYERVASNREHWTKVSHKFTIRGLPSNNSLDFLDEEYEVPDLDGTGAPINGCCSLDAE

| Structure (SMILES) | Ki (Rhesus PDE2A3; [1]) | Ki (Rhesus PDE2A3; [2]) | Ki (human PDE2A1; [3]) | Ki (human PDE2A1; [4]) |
| --- | --- | --- | --- | --- |
| COCc1nc(C(=O)N[C@H](C)c2ccc(SC(F)(F)F)cc2)cc(=O)[nH]1 [Example 123, 2-(methoxymethyl)-6-oxo-N-[(1R)-1-{4-[(trifluoromethyl)sulfanyl]phenyl}ethyl]-1,6-dihydropyrimidine-4-carboxamide] | 39 nM | 31 nM | ~8.2 nM | – |
| COc1ccc(Cc2nc(C(=O)N[C@@H](c3ccc(OC(F)(F)F)cc3)C(C)C)cc(=O)[nH]2)cc1F [Example 517, 2-(3-fluoro-4-methoxybenzyl)-N-{(1R)-2-methyl-1-[4-(trifluoromethoxy)phenyl]propyl}-6-oxo-1,6-dihydropyrimidine-4-carboxamide] | – | 1.3 nM | – | 1.7 nM |
| Cc1nc(C(=O)N[C@@H](c2ccc(C(F)(F)F)c(F)c2)C2(C)CC2)cc(=O)[nH]1 [Example 613, N-[(R)-[3-fluoro-4-(trifluoromethyl)phenyl](1-methylcyclopropyl)methyl]-2-methyl-6-oxo-1,6-dihydropyrimidine-4-carboxamide] | – | 13 nM | – | 12 nM |
| CCc1nc(C(=O)NC2(c3ccc(OC(F)(F)F)c(F)c3)CC2)cc(=O)[nH]1 [Example 602] | – | 5.2 nM | – | 4.2 nM |
| Cc1nc(C(=O)N[C@@H](c2ccc(C(C)C)cc2)C2(C)CC2)cc(=O)[nH]1 [Example 427, 2-methyl-N-{(R)-(1-methylcyclopropyl)[4-(1-methylethyl)phenyl]methyl}-6-oxo-1,6-dihydropyrimidine-4-carboxamide] | – | 3.7 nM | – | 3.7 nM |
| O=C(N[C@@H](CC(F)(F)F)c1ccc(C(F)(F)F)cc1)c1cc(=O)[nH]c(-c2ccccc2)n1 [Example 366, 6-oxo-2-phenyl-N-{(1S)-3,3,3-trifluoro-1-[4-(trifluoromethyl)phenyl]propyl}-1,6-dihydropyrimidine-4-carboxamide] | 132 nM | 458 nM | – | 386 nM |
| Cc1nc(C(=O)NC(C)c2ccc(C(F)(F)F)cn2)cc(=O)[nH]1 (centres unmarked) [Example 17, 2-methyl-6-oxo-N-{1-[5-(trifluoromethyl)pyridin-2-yl]ethyl}-1,6-dihydropyrimidine-4-carboxamide] | 1160 nM | – | 917 nM | – |
| Cc1nc(C(=O)NC2(c3ccc(C(F)(F)F)cc3)CC2)cc(=O)[nH]1 [Example 1, 2-Methyl-6-oxo-N-{1-[4-(trifluoromethyl)phenyl]cyclopropyl}-1,6-dihydropyrimidine-4-carboxamide] | 21 nM | 28 nM | 16 nM | 36 nM |
| CC[C@@H](NC(=O)c1cc(=O)[nH]c(-c2ncccn2)n1)c1ccc(S(F)(F)(F)(F)F)cc1 [Example 257, 6-oxo-N-{(1R)-1-[4-(pentafluoro-λ^6-sulfanyl)phenyl]propyl}-1,6-dihydro-2,2′-bipyrimidine-4-carboxamide] | 2.6 nM | 4 nM | – | 3.8 nM |
| C[C@@H](NC(=O)c1cc(=O)[nH]c(-c2ccccc2)n1)c1ccc(C(F)(F)F)c(Cl)c1 [Example 190, N-{(1R)-1-[3-chloro-4-(trifluoromethyl)phenyl]ethyl}-6-oxo-2-phenyl-1,6-dihydropyrimidine-4-carboxamide] | 6.4 nM | – | 6.1 nM | – |
| CC[C@@H](NC(=O)c1cc(=O)[nH]c(Cc2ccc(OC)c(F)c2)n1)c1ccc(C(F)(F)F)c(F)c1 [Example 527, 2-(3-fluoro-4-methoxybenzyl)-N-{(1R)-1-[3-fluoro-4-(trifluoromethyl)phenyl]propyl}-6-oxo-1,6-dihydropyrimidine-4-carboxamide] | – | 3.1 nM | – | 3 nM |
| CC1(C(NC(=O)c2cc(=O)[nH]c(-c3ncccn3)n2)c2ccc(SC(F)(F)F)c(F)c2)CC1 (single isomer, unassigned) [Example 709, (R)- or (S)-N-((3-fluoro-4-((trifluoromethyl)thio)phenyl)(1-methylcyclopropyl)methyl)-6-oxo-1,6-dihydro-[2,2′-bipyrimidine]-4-carboxamide] | – | 8.1 nM | – | 7.4 nM |
| Cc1nc(C(=O)N[C@@H](c2ccc(OC(F)(F)F)cc2)C(C)(C)C)cc(=O)[nH]1 [Example 57, (R)-N-(2,2-dimethyl-1-(4-(trifluoromethoxy)phenyl)propyl)-2-methyl-6-oxo-1,6-dihydropyrimidine-4-carboxamide] | – | 5.8 nM | – | 3.9 nM |
| O=C(N[C@@H](c1ccc(OC(F)(F)F)cc1)C1CC1)c1cc(=O)[nH]c(C2CC2)n1 [Example 211, 2-cyclopropyl-N-{(R)-cyclopropyl[4-(trifluoromethoxy)phenyl]methyl}-6-oxo-1,6-dihydropyrimidine-4-carboxamide] | 7.1 nM | – | 2.5 nM | – |
| O=C(N[C@@H](c1ccc(OC(F)(F)F)c(F)c1)C1CC1)c1cc(=O)[nH]c(-c2ncccn2)n1 [Example 93, N-{(R)-cyclopropyl[3-fluoro-4-(trifluoromethoxy)phenyl]methyl}-6-oxo-1,6-dihydro-2,2′-bipyrimidine-4-carboxamide] | 35 nM | – | 9.6 nM | – |
| Cc1nc(C(=O)N[C@H](C)c2ccc(SC(F)(F)F)cc2)cc(=O)[nH]1 [Example 66, 2-methyl-6-oxo-N-[(1R)-1-{4-[(trifluoromethyl)sulfanyl]phenyl}ethyl]-1,6-dihydropyrimidine-4-carboxamide] | 11 nM | – | 5.8 nM | – |
| CC(C)[C@@H](NC(=O)c1cc(=O)[nH]c(-c2ncccn2)n1)c1ccc(OC(F)(F)F)c(F)c1 [Example 74, N-{(1R)-1-[3-fluoro-4-(trifluoromethoxy)phenyl]-2-methylpropyl}-6-oxo-1,6-dihydro-2,2′-bipyrimidine-4-carboxamide] | 5 nM | 4.8 nM | – | 4.7 nM |
| Cc1nc(C(=O)NC(C)(C)c2ccc(C(F)(F)F)c(F)c2)cc(=O)[nH]1 [Example 43, N-{1-[3-fluoro-4-(trifluoromethyl)phenyl]-1-methylethyl}-2-methyl-6-oxo-1,6-dihydropyrimidine-4-carboxamide] | 20 nM | 14 nM | 18 nM | 15 nM |
| COCc1nc(C(=O)N[C@H](C)c2ccc(C(C)C)cc2)cc(=O)[nH]1 [Example 122, 2-(methoxymethyl)-N-{(1R)-1-[4-(1-methylethyl)phenyl]ethyl}-6-oxo-1,6-dihydropyrimidine-4-carboxamide] | 152 nM | – | 38 nM | – |
| O=C(NC1(c2ccc(OC(F)(F)F)cc2)CC1)c1cc(=O)[nH]c(-c2ccccc2)n1 [Example 277, 6-oxo-2-phenyl-N-{1-[4-(trifluoromethoxy)phenyl]cyclopropyl}-1,6-dihydropyrimidine-4-carboxamide] | 6.6 nM | – | 5.6 nM | – |
| COCc1nc(C(=O)N[C@H](C)c2ccc(OC(F)(F)F)c(F)c2)cc(=O)[nH]1 [Example 126, N-{(1R)-1-[3-fluoro-4-(trifluoromethoxy)phenyl]-ethyl}-2-(methoxymethyl)-6-oxo-1,6-dihydropyrimidine-4-carboxamide] | 48 nM | 61 nM | ~11 nM | 64 nM |
| COc1ccc(C(C)(C)c2nc(C(=O)N[C@@H](c3ccc(OC(F)(F)F)cc3)C3CC3)cc(=O)[nH]2)cc1 [Example 501, N-{(R)-cyclopropyl[4-(trifluoromethoxy)phenyl]methyl}-2-[1-(4-methoxyphenyl)-1-methylethyl]-6-oxo-1,6-dihydropyrimidine-4-carboxamide] | – | 77 nM | – | 64 nM |
| CC(C)(NC(=O)c1cc(=O)[nH]c(-c2ccccc2)n1)c1ccc(C(F)(F)F)c(F)c1 [Example 158, N-{1-[3-fluoro-4-(trifluoromethyl)phenyl]-1-methylethyl}-6-oxo-2-phenyl-1,6-dihydropyrimidine-4-carboxamide] | 14 nM | – | 9 nM | – |
| COc1ccc(C(C)(C)c2nc(C(=O)N[C@@H](c3ccc(OC(F)(F)F)c(F)c3)C3CC3)cc(=O)[nH]2)cc1 [Example 498, N-{(R)-cyclopropyl[3-fluoro-4-(trifluoromethoxy)phenyl]methyl}-2-[1-(4-methoxyphenyl)-1-methylethyl]-6-oxo-1,6-dihydropyrimidine-4-carboxamide] | – | 65 nM | – | 49 nM |
| Cc1nc(C(=O)N[C@@H](c2ccc(C(F)(F)F)cc2)C2(C)CC2)cc(=O)[nH]1 [Example 612, 2-methyl-N-{(R)-(1-methylcyclopropyl)[4-(trifluoromethyl)phenyl]methyl}-6-oxo-1,6-dihydropyrimidine-4-carboxamide] | – | 11 nM | – | 11 nM |
| CC(C)(NC(=O)c1cc(=O)[nH]c(C2CC2)n1)c1ccc(OC(F)(F)F)c(F)c1 [Example 198] | 96 nM | – | 59 nM | – |
| O=C(N[C@@H](c1ccc(C(F)(F)F)c(F)c1)C1CC1)c1cc(=O)[nH]c(-c2ncccn2)n1 [Example 91, N-{(R)-cyclopropyl[3-fluoro-4-(trifluoromethyl)phenyl]methyl}-6-oxo-1,6-dihydro-2,2′-bipyrimidine-4-carboxamide] | 34 nM | 28 nM | ~9.8 nM | 33 nM |
| C[C@@H](NC(=O)c1cc(=O)[nH]c(-c2ncccn2)n1)c1ccc(C2CC2)cc1 [Example 250, N-[(1R)-1-(4-cyclopropylphenyl)ethyl]-6-oxo-1,6-dihydro-2,2′-bipyrimidine-4-carboxamide] | 5.3 nM | 5.4 nM | – | 6.3 nM |
| C[C@@H](NC(=O)c1cc(=O)[nH]c(C2CC2)n1)c1ccc(SC(F)(F)F)cc1 [Example 15, (R)-2-cyclopropyl-6-oxo-N-(1-(4-((trifluoromethyl)thio)phenyl)ethyl)-1,6-dihydro pyrimidine-4-carboxamide] | 4.4 nM | – | 3.5 nM | – |
